Reference: patent US20230001396A1, “COMPOSITIONS AND METHODS FOR CONTROLLED DELIVERY AND PROTECTION OF THERAPEUTIC AGENTS” (Board of Regents, The University of Texas System, priority 2019, published 2023)

Assay: Ex vitro study: fluorescence intensity over time in 1×PBS at 37° C.
Assay type: physicochemical
Details: 1×PBS buffer pH 7.4 and 5.4, 37° C.
Description: Ex vitro study: In order to observe the stability of PLGA microparticles in blood ex vitro study was done by the presence of fluorescence intensity after treating the Cy5@ZIF-8@PLGA particles in 1×PBS buffer. The experiment was performed at two different pH conditions. One was pH 7.4 which is the normal blood pH and another was pH 5.4 which mimic the extreme pH condition of blood in different disease states. The fluorescence intensity was measured at different time intervals. For that four types of samples were prepared every time. In two Eppendorf tubes PBS buffer of pH 7.4 and 5.4 were taken and fluorescence intensity was measured and found no peaks. PLGA microparticles were dissolved in 1×PBS buffer pH 7.4 and pH 5.4 with 10 mins centrifugation in Beckman ultra-small centrifuge machine at 3225×g. Only the dissolved clear supernatant was taken and kept in a hot room (37° C.). In another two Eppendorf tubes, Cy5 dye was dissolved in 1×PBS buffer pH 7.4 and 5.4 and kept under the same conditions as the PLGA microparticles to validate the change of fluorescence intensity of Cy5 dye at 37° C. (FIGS. 8A-8D).
It is believed that the PLGA microparticles further preserve the Cy5 dye and act as a sustained release protective shell which can enhance the release period of model drug Cy5 at blood pH.

For `C[N+]1=C(C=CC=CC=C2N(CCCCCC(=O)O)c3ccc(S(=O)(=O)O)cc3C2(C)C)C(C)(C)c2cc(S(=O)(=O)[O-])ccc21` [Cy5 dye, 3H-Indolium, 2-[5-[1-(5-Carboxypentyl)-1,3-dihydro-3,3-dimethyl-5-sulfo-2H-indol-ylidene]-1,3-pentadien-1-yl]-1-methyl-3,3-dimethyl-5-sulfonate], the “change of fluorescence intensity over time” value was “did not show any regular change of fluorescence intensity over time”.
